Patent US7910622B2, “Modulation of bacterial quorum sensing with synthetic ligands” (Wisconsin Alumni Research Foundation, priority 2007, dated 2011)
Entries after “also recorded” stand apart in the source; their conditions may differ.

Experiments:
elastase B production = assay: microbe, parasite or virus in culture; assay type: cell-based, Pseudomonas aeruginosa; conditions: for elastase B production inhibition: Example 2, concentration not stated (20 or 200 tested); for inhibition at 200 µM: Pseudomonas aeruginosa, PAO1, read-out: elastase B production inhibition
Experimental: Elastase B production assay in P. aeruginosa. Elastase B activity in P. aeruginosa was measured according to a previously reported method, with the following modifications. P. aeruginosa PAO1 was grown overnight in LB media at 37° C., after which it was diluted to an OD600=0.1. Portions (2 mL) of this culture was added to test tubes containing synthetic compounds to give final concentrations of 20 μM or 200 μM and incubated for 12-14 h at 37° C. with 200 rpm shaking. The OD600 was measured for each tube, after which the contents of the tubes were filtered through a […] Whatman filter to remove all cellular matter. A 100 μL-aliquot of the supernatant was added to 900 μL of an Elastin Congo Red Solution (5 mg of Elastin Congo red substrate per 1 mL of 100 mM Tris-HCl, 1 mM CaCl2 (pH 7.2)) and incubated for 12 h at 37° C. with 250 rpm shaking. The contents of these tubes were then filtered in order to remove unreacted Elastin Congo red substrate. Elastase B activity was then calculated (normalized) by dividing the absorbance of the cleaved Congo red (OD492) by the cell density (OD600 of the cells before first filtration).
Elastase B production assay in P. aeruginosa. Elastase B activity in P. aeruginosa was measured according to a previously reported method, with the following modifications. P. aeruginosa PAO1 was grown overnight at 37° C. and then diluted 1:10 with fresh LB medium. Portions (2 mL) of this culture were added to test tubes containing synthetic compounds to give final compound concentrations of 20 μM or 200 μM. The tubes were incubated for 12-14 h at 37° C. The OD600 was measured for each tube, after which the contents of the tubes were filtered through a 0.2 μm Whatman filter to remove all cellular matter. A 100 μL aliquot of the supernatant was added to 900 μL of an elastin-Congo red solution (5 mg of elastin-Congo red substrate per 1 mL of buffer (100 mM Tris-HCl, 1 mM CaCl2, pH 7.2)) and incubated for 12 h at 37° C. with 250 rpm shaking. The contents of these tubes were then filtered in order to remove unreacted elastin-Congo red substrate, and the supernatant containing cleaved Congo red was isolated. A 200 μL aliquot of the supernatant was added to a 96-well multititer plate, and the OD492 was measured. Elastase B activity was calculated by dividing the absorbance of the cleaved Congo red solution (OD492) by the cell density (OD600 of the cells before first filtration).

LasR = target: T1, LasR (Pseudomonas aeruginosa, UniProt P25084); assay: cell-based; conditions: for E. coli-LasR Activation [%]: 5 μM ligand; for E. coli-LasR Activation [%] / activation at 5 µM: E. coli DH5α (pJN105L pSC11), normalized to OdDHL; for activation at 5 µM: read-out: E. coli-LasR Activation [%], 5 μM ligand
T1 construct: expressed in transfected cells; host or cells: E. coli DH5α (pJN105L pSC11), arabinose-induced
How it was run: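 E. coli DH5α carrying pJN105L/pSC11 grown to OD600 0.3, LasR expression induced with arabinose (4 mg/mL), then incubated with AHLs at 37 °C to OD600 0.45. LasR activity read by β-galactosidase reporter assay; IC50/EC50 from sigmoidal dose-response fits.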

LuxR = target: T2, LuxR (Aliivibrio fischeri, UniProt P35327); assay: cell-based; assay type: cell-based, Vibrio fischeri; conditions: for V. fischeri-LuxR Inhibition [%]: 5 μM synthetic ligand against 5 μM OHHL; for V. fischeri-LuxR Inhibition [%] / inhibition at 5 µM: V. fischeri ES114 (Δ-luxI), normalized to OHHL; for IC50: LuxR IC50, determined against 5 μM OHHL; for inhibition at 5 µM: read-out: V. fischeri-LuxR Inhibition [%], 5 μM synthetic ligand against 5 μM OHHL
T2 construct: a Δ-luxI derivative of V. fischeri ES114, in which the native lux operon behaves as the bioluminescent reporter; endogenous in cells; host or cells: V. fischeri ES114 (Δ-luxI)
How it was run: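 Whole-cell luminescence reporter in V. fischeri ES114 (WT, Δ-luxI or Δ-luxR) or E. coli, overnight cultures diluted 1:10 and grown with compound at RT (E. coli 30° C) to OD600 0.35-0.4 (4-6 h). Luminescence normalized to cell density, triplicates; EC50/IC50 from sigmoidal fit.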

T1 sequence (P25084 whole entry): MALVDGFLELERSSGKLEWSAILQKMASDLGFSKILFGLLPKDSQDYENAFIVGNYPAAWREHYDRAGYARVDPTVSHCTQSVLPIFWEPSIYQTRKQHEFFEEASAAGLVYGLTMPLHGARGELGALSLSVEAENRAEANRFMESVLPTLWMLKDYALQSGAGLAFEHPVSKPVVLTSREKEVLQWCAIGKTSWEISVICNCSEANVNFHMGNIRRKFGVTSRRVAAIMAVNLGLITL
T2 sequence (P35327 whole entry): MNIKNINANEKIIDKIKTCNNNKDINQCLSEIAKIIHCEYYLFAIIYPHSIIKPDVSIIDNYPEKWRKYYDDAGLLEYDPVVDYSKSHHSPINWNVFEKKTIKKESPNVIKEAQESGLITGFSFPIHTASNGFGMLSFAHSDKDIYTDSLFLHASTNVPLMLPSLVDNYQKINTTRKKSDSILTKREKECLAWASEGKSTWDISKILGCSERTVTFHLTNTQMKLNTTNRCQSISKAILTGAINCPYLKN

3-nitro PHL [B17]
activation of elastase B production at high concentration (elastase B production; P. aeruginosa PAO1, 10-fold higher concentration (200 vs 20)): activate elastase B production; also recorded: capable of both inhibiting and activating elastase B production
E. coli-LasR Activation [%] (LasR): 11%
V. fischeri-LuxR Inhibition [%] (LuxR): −15%

O=C(Cc1ccc(Br)cc1)N[C@H]1CCOC1=O [A17, 4-bromo-phenylacetanoyl HL, reference compound]
elastase B production inhibition (elastase B production; P. aeruginosa PAO1): ca. 76%
activation at 5 µM (LasR): 0%
V. fischeri-LuxR Inhibition [%] (LuxR): 79%

O=C(CCCc1c[nH]c2ccccc12)N[C@H]1CCOC1=O [A18, indole AHL, reference compound]
elastase B production inhibition (elastase B production; P. aeruginosa PAO1): ~67%
E. coli-LasR Activation [%] (LasR): 3%
V. fischeri-LuxR Inhibition [%] (LuxR): 72%

O=C(Cc1ccc(-c2ccccc2)cc1)NC1CCOC1=O (stereo not shown) [B21, 4-phenyl PHL]
elastase B production inhibition (elastase B production; P. aeruginosa PAO1): poorly antagonized elastase B production
activation at 5 µM (LasR): 0%
IC50 (LuxR): 1.06 µM
inhibition at 5 µM (LuxR): ~70%

O=C(Cc1ccc(-c2ccccc2)cc1)N[C@H]1CCOC1=O [C18, 4-phenyl PHL]
inhibition at 200 µM (elastase B production): 4%
Activation (%) (LasR; E. coli-LasR, Library C primary agonism screen): 0%
activation at 5 µM (LasR): 0%
IC50 (LuxR): 1.06 µM
Inhibition (%) (LuxR; V. fischeri-LuxR, Library C primary antagonism screen): 79%

O=C(Cc1ccc(Br)cc1)N[C@H]1CCOC1=O [compound 8, N-(4-bromo-phenylacetanoyl)-L-homoserine lactone, reference compound]
inhibition at 200 µM (elastase B production): 77%
E. coli-LasR Activation [%] (LasR): 0%
IC50 (LuxR): 3.7 µM
inhibition at 5 µM (LuxR): ~76%
